Publication PMC12514245, “Impaired migration and lung invasion of human melanoma by a novel small molecule targeting the transmembrane domain of death receptor p75^NTR” (EMBO Molecular Medicine, 2025)
Several values for one entry are separate records, joined by “and”; a condition that tells them apart may be missing. Equal values may be shown once. Read-outs that look alike come from different tables or passages of the source.

Key:
A875 shp75 cells [1] = experiment: Wound healing cell motility assay, A875 shp75; type: cell-based, human; details: A875 shp75, 2uM
Description: For wound healing assay, cells were grown until confluency and subjected to a wound across the cell mono-layer. Cells were then incubated with serum-free media either with DMSO or a small molecule (with or without 5 µM Q_VD_poH) and imaged at specific time-points. Cell migration is reflected as fold change in wound area over time.

A875 shp75 cells [2] = experiment: Cell viability (Presto Blue), A875 shp75; type: cell-based, human; details: for viability at 5 µM: Div17E5 5 uM
Description: (§1) To measure the cytotoxic effect of Div17E5, A875 NT or shp75 cells were seeded at 2000 cells per well (in 100 μL DMEM) in a 96-well plate and incubated for 12 h. Next, Div17E5 at various concentrations was added and incubated at 37 °C in 5% CO2 for 2 days. Following treatment, 10 μL Presto Blue® (resazurin, ThermoFIsher) was added to each well of the 96-well plate and incubated for 2 h at 37 °C in 5% CO2. Cellular fluorescence in each well was measured at 535 nm excitation and 615 nm emission using a microtiter plate reader. Data was converted into the relative cell viability (%) from the fluorescence of cells in each treatment relative to that of the DMSO control group (set as 100%).

[3] = Cell viability (Presto Blue), A875 shp75; type: cell-based, human; details: human, A875 shp75 cells, 2 days; for viability at 2 days, 1 uM: Div17E5 1 uM; for viability at 2 days, 1.5 uM: Div17E5 1.5 uM
Description: as §1

α2β3 integrin TMD = experiment: AraTM assay, α2β3 integrin TMD; type: cell-based; details: for GFP/OD630, A2b, mean: N=3
[4] = N=3, read-out: Cell Viability, Mean
[5] = read-out: Cell Viability, n1-n3

Oc1ccc(-c2cncc(Nc3ccc(Br)c(Cl)c3)n2)cc1 [Div17E5]
Wound area (Fold) (A875 shp75 cells [1]; 0 h, Mean): 1.000 Fold
Wound area (Fold) (A875 shp75 cells [1]; 0 h, n1): 1.055 Fold
Wound area (Fold) (A875 shp75 cells [1]; 0 h, n2): 0.891 Fold
Wound area (Fold) (A875 shp75 cells [1]; 0 h, n3): 1.054 Fold
Wound area (Fold) (A875 shp75 cells [1]; 3 h, Mean): 0.908 Fold
Wound area (Fold) (A875 shp75 cells [1]; 3 h, n1): 0.882 Fold
Wound area (Fold) (A875 shp75 cells [1]; 3 h, n2): 0.921 Fold
Wound area (Fold) (A875 shp75 cells [1]; 3 h, n3): 0.922 Fold
Wound area (Fold) (A875 shp75 cells [1]; 6 h, Mean): 0.857 Fold
Wound area (Fold) (A875 shp75 cells [1]; 6 h, n1): 0.826 Fold
Wound area (Fold) (A875 shp75 cells [1]; 6 h, n2): 0.869 Fold
Wound area (Fold) (A875 shp75 cells [1]; 6 h, n3): 0.877 Fold
Wound area (Fold) (A875 shp75 cells [1]; 9 h, Mean): 0.836 Fold
Wound area (Fold) (A875 shp75 cells [1]; 9 h, n1): 0.818 Fold
Wound area (Fold) (A875 shp75 cells [1]; 9 h, n2): 0.854 Fold
Wound area (Fold) (A875 shp75 cells [1]; 9 h, n3): 0.836 Fold
Wound area (Fold) (A875 shp75 cells [1]; 12 h, Mean): 0.798 Fold
Wound area (Fold) (A875 shp75 cells [1]; 12 h, n1): 0.793 Fold
Wound area (Fold) (A875 shp75 cells [1]; 12 h, n2): 0.807 Fold
Wound area (Fold) (A875 shp75 cells [1]; 12 h, n3): 0.794 Fold
Wound area (Fold) (A875 shp75 cells [1]; 15 h, Mean): 0.786 Fold
Wound area (Fold) (A875 shp75 cells [1]; 15 h, n1): 0.790 Fold
Wound area (Fold) (A875 shp75 cells [1]; 15 h, n2): 0.776 Fold
Wound area (Fold) (A875 shp75 cells [1]; 15 h, n3): 0.791 Fold
Wound area (Fold) (A875 shp75 cells [1]; 18 h, Mean): 0.750 Fold
Wound area (Fold) (A875 shp75 cells [1]; 18 h, n1): 0.749 Fold
Wound area (Fold) (A875 shp75 cells [1]; 18 h, n2): 0.742 Fold
Wound area (Fold) (A875 shp75 cells [1]; 18 h, n3): 0.760 Fold
Wound area (Fold) (A875 shp75 cells [1]; 21 h, Mean): 0.731 Fold
Wound area (Fold) (A875 shp75 cells [1]; 21 h, n1): 0.738 Fold
Wound area (Fold) (A875 shp75 cells [1]; 21 h, n2): 0.705 Fold
Wound area (Fold) (A875 shp75 cells [1]; 21 h, n3): 0.751 Fold
Wound area (Fold) (A875 shp75 cells [1]; 24 h, Mean): 0.700 Fold
Wound area (Fold) (A875 shp75 cells [1]; 24 h, n1): 0.699 Fold
Wound area (Fold) (A875 shp75 cells [1]; 24 h, n2): 0.661 Fold
Wound area (Fold) (A875 shp75 cells [1]; 24 h, n3): 0.739 Fold
Cell Viability, n1-n3 (A875 shp75 cells [2]; Div17E5 0.5 uM, 2 days): 104%
Cell Viability, n1-n3 (A875 shp75 cells [2]; Div17E5 1 uM, 2 days): 109% and 112%
Cell Viability, n1-n3 (A875 shp75 cells [2]; Div17E5 1.5 uM, 2 days): 100%
Cell Viability, n1-n3 (A875 shp75 cells [2]; Div17E5 2 uM, 2 days): 96% and 100%
Cell Viability, n1-n3 (A875 shp75 cells [2]; Div17E5 2.5 uM, 2 days): 90% and 99%
Cell Viability, n1-n3 (A875 shp75 cells [2]; Div17E5 7.5 uM, 2 days): 81% and 91%
Cell Viability, n1-n3 (A875 shp75 cells [2]; Div17E5 10 uM, 2 days): 90% and 78%
viability at 0.5 µM (A875 shp75 cells [2]; Homo sapiens, A875, 48 h, Div17E5 0.5 uM, 2 days, N=3): 103%
viability at 2 µM (A875 shp75 cells [2]; Homo sapiens, A875, 48 h, Div17E5 2 uM, 2 days, N=3, read-out: Cell Viability, Mean): 101%
viability at 2 µM (A875 shp75 cells [2]; Homo sapiens, A875, 48 h, Div17E5 2 uM, 2 days, read-out: Cell Viability, n1-n3): 107%
viability at 2.5 µM (A875 shp75 cells [2]; Homo sapiens, A875, 48 h, Div17E5 2.5 uM, 2 days, N=3, read-out: Cell Viability, Mean): 92%
viability at 2.5 µM (A875 shp75 cells [2]; Homo sapiens, A875, 48 h, Div17E5 2.5 uM, 2 days, read-out: Cell Viability, n1-n3): 86%
viability at 5 µM (A875 shp75 cells [2]; Homo sapiens, A875, 48 h, 2 days, N=3, read-out: Cell Viability, Mean): 93%
viability at 5 µM (A875 shp75 cells [2]; Homo sapiens, A875, 48 h, 2 days, read-out: Cell Viability, n1-n3): 101%
viability at 7.5 µM (A875 shp75 cells [2]; Homo sapiens, A875, 48 h, Div17E5 7.5 uM, 2 days, N=3, read-out: Cell Viability, Mean): 86%
viability at 7.5 µM (A875 shp75 cells [2]; Homo sapiens, A875, 48 h, Div17E5 7.5 uM, 2 days, read-out: Cell Viability, n1-n3): 85%
viability at 10 µM (A875 shp75 cells [2]; Homo sapiens, A875, 48 h, Div17E5 10 uM, 2 days, N=3, read-out: Cell Viability, Mean): 84%
viability at 10 µM (A875 shp75 cells [2]; Homo sapiens, A875, 48 h, Div17E5 10 uM, 2 days, read-out: Cell Viability, n1-n3): 85%
cell viability (A875 shp75 cells [2]; above 10 μM): sensitive
cell viability (A875 shp75 cells [2]; doses up to 10 μM): largely refractory
viability at 2 days, 0.5 uM ([3]; Div17E5 0.5 uM, read-out: Cell Viability, n1-n3): 101%
viability at 2 days, 1 uM [3, 4]: 107%
viability at 2 days, 1 uM [3, 5]: 101%
viability at 2 days, 1.5 uM [3, 4]: 103%
viability at 2 days, 1.5 uM [3, 5]: 107%
GFP/OD630, A2b, single replicates (α2β3 integrin TMD; Div17E5 1 μM): 111 and 92 and 98
GFP/OD630, A2b, mean (α2β3 integrin TMD; Div17E5 1 μM): 100
GFP/OD630, A2b, single replicates (α2β3 integrin TMD; Div17E5 2.5 μM): 89 and 116 and 95
GFP/OD630, A2b, mean (α2β3 integrin TMD; Div17E5 2.5 μM): 100
GFP/OD630, A2b, single replicates (α2β3 integrin TMD; Div17E5 5 μM): 95 and 87 and 112
GFP/OD630, A2b, mean (α2β3 integrin TMD; Div17E5 5 μM): 98
GFP/OD630, A2b, single replicates (α2β3 integrin TMD; Div17E5 10 μM): 81 and 96 and 87
GFP/OD630, A2b, mean (α2β3 integrin TMD; Div17E5 10 μM): 88
GFP/OD630, A2b, single replicates (α2β3 integrin TMD; Div17E5 20 μM): 90 and 98 and 82
GFP/OD630, A2b, mean (α2β3 integrin TMD; Div17E5 20 μM): 90
GFP/OD630, A2b, single replicates (α2β3 integrin TMD; Div17E5 50 μM): 79 and 86 and 94
GFP/OD630, A2b, mean (α2β3 integrin TMD; Div17E5 50 μM): 86
